Results reported in patent US12421242B2, “Substituted tetrahydropyrrolo-pyridinone compounds and their use in treating medical conditions” (Karuna Therapeutics, Inc., priority 2022, dated 2025).

Key:
rM4 receptors = target: T1, rM4 receptors (Rattus norvegicus, UniProt P08485); assay: Rat M4 PAM pERK assay; format: cell-based; details: PAM mode
T1 construct: expressed in transfected cells; host or cells: CHO cells
T1 sequence (P08485 1-478): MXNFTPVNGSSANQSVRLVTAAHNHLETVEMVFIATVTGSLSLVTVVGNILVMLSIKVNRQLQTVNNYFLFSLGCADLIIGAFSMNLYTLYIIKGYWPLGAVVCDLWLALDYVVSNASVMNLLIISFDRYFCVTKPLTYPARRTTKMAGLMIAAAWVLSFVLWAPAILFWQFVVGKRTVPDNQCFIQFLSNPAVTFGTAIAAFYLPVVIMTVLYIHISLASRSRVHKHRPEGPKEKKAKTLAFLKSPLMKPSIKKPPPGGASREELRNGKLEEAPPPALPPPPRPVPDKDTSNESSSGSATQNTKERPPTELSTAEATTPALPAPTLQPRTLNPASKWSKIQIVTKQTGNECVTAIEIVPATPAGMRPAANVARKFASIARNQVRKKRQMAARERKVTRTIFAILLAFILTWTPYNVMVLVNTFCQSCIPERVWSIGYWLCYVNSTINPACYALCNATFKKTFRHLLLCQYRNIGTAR
Outline: (§1)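 CHO cells expressing hM4 or rM4 were serum-starved 4 h, then given compound (ten-point curve, 10 μM top, duplicate) with an EC20 of acetylcholine (10 nM final) for 5 min at 37° C. Phospho-ERK in lysates was detected by TR-FRET.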

hM4 receptors = target: T2, hM4 receptors (Homo sapiens, UniProt P08173); assay: Human M4 PAM pERK assay; format: cell-based; details: PAM mode
T2 construct: expressed in transfected cells; host or cells: CHO cells
T2 sequence (P08173 1-479): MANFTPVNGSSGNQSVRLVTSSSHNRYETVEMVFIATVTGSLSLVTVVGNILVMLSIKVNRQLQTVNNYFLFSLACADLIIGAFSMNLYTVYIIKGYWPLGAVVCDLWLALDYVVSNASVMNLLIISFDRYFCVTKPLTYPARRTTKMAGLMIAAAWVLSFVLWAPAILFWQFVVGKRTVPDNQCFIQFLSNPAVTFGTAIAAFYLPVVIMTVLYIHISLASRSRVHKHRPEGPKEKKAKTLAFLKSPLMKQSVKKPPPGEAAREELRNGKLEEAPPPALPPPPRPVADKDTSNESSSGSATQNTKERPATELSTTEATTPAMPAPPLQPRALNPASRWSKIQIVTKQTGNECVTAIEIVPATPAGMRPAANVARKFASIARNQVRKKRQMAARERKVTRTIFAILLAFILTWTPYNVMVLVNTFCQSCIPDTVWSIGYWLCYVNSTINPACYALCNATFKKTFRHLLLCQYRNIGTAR
Outline: as §1

human M4 receptor = target: T3, human M4 receptor (Homo sapiens, UniProt P08173); assay: M4 GTPγS PAM assay; format: biochemical; details: CHO-K1 membranes expressing human M4, with EC20 acetylcholine (40 nM)
T3 construct: expressed in transfected cells
T3 sequence (P08173 1-479): T2 sequence (P08173 1-479)
Method: The M4 GTPγS PAM method was used. Membranes were prepared for GTPgS binding assays from CHO-K1 cells stably expressing human M4 receptor. Briefly, cells were grown in 5-layer cell culture flasks. Cells were washed with 50 mL of PBS and then dissociated with 0.05% trypsin. Dissociated cells were then collected by centrifugation at 650×g for 8 minutes at 4° C. Pellets were washed again in PBS by centrifugation and resuspended in 30 mL of 20 mM HEPES, 10 mM EDTA, pH 7.4. After sitting on ice for 30 min, membranes were collected by centrifugation at 50000×g for 15′ at 4° C., resuspended in 30 mL of 20 mM HEPES, 0.1 mM EDTA, pH 7.4 and collected again by centrifugation. Pellets were then washed twice by centrifugation in 30 mL of 20 mM HEPES, pH 7.4, and stored at −80° C. until the day of the assay. On the day of the assay, pellets were thawed on ice and resuspended in 1 mL of 20 mM HEPES, pH 7.4, 10 mM MgCl2, 100 mM NaCl using dounce homogenization. Membrane protein concentration is determined by BCA protein assay (Promega, Madison, WI) according to Promega guidelines.
On the day of the assay, serial dilutions of test PAM compounds were brought up in assay buffer (20 mM HEPES, 10 mM MgCl2, 100 mM NaCl) at 4× final assay concentration. […] of membrane homogenates (containing […] of membrane protein) were prepared in assay buffer supplemented with GDP at 4× final assay concentration (final assay concentration of GDP is 5 uM for M2 and 0.1 uM for M4) and dispensed into 96 well polypropylene, U-bottom Greiner plates. […] of vehicle or test PAM compound at 4× of final assay concentration diluted in the assay buffer were added to membrane and plates are incubated for 10-15 minutes at room temperature with gentle shaking. Then, […] of EC20 acetylcholine in assay buffer at 4× final assay concentration was added to assay plates (EC20 final assay concentrations was 40 nM for human M4).
Plates were then incubated, with shaking, for an additional 10-15 minutes. 25 mL of 0.4 nM ^35S-GTP (Perkin Elmer, Waltham, MA) in assay buffer was added to assay mixtures. The binding reaction is left on the shaker for 1 hour at room temperature. Membranes in assay reactions were then transferred to GF/C filter plates (Unifilter, Perkin Elmer) and washed three times using a FilterMate Harvester (Perkin Elmer) with cold assay buffer containing no GDP. Filter plates were then dried at 40° C. overnight followed by the addition of […] of Beta Plate Scintillation liquid. Plates are top and bottom sealed before being read on TopCount scintillation counter (Perkin Elmer, Waltham, MA).

| SMILES | EC50 (rM4 receptors) | EC50 (hM4 receptors) | EC50 (human M4 receptor) |
| --- | --- | --- | --- |
| Cc1cc(=O)n(C)c2c1C(C)N(C(=O)c1ccc3nc(C4CC4)sc3c1)C2 (single isomer, unassigned) [Compound I-98] | > 2000 nM | > 2000 nM | > 2000 nM |
| COc1c2c(n(C)c(=O)c1C)CN(C(=O)c1cnn(C(F)(F)F)c1)C2C (single isomer, unassigned) [Compound I-84] | > 2000 nM | 500 to 2000 nM | > 2000 nM |
| Cc1ncc(C(=O)N2Cc3c(C)c(Cl)c(=O)n(C)c3C2)s1 [Compound I-9] | 500 to 2000 nM | < 100 nM | 500 to 2000 nM |
| Cc1c2c(n(C)c(=O)c1Cl)C(C)N(C(=O)c1cnn(C(F)(F)F)c1)C2 (stereo not drawn) [Compound I-109] | > 2000 nM | 500 to 2000 nM | > 2000 nM |
| Cc1cc(=O)n(C)c2c1C(C)N(C(=O)c1ccc3nc(C4CC4)sc3c1)C2 (single isomer, unassigned) [Compound I-99] | 500 to 2000 nM | 100 to 500 nM | 500 to 2000 nM |
| Cc1cc(=O)n(C)c2c1C(C)N(C(=O)c1cnc(C(F)(F)F)s1)C2 (single isomer, unassigned) [Compound I-94] | > 2000 nM | > 2000 nM | > 2000 nM |
| Cc1c2c(n(C)c(=O)c1Cl)CN(C(=O)c1cn3c(n1)CCCC3)C2 [Compound I-24] | > 2000 nM | 500 to 2000 nM | > 2000 nM |
| Cc1c2c(n(C)c(=O)c1Cl)CN(C(=O)c1cn(CC(C)C)cn1)C2 [Compound I-19] | > 2000 nM | 500 to 2000 nM | > 2000 nM |
| Cc1cc(=O)n(C)c2c1C(C)N(C(=O)c1cnn(C(F)(F)F)c1)C2 (single isomer, unassigned) [Compound I-92, 1,4,5-Trimethyl-6-(1-(trifluoromethyl)-1H-pyrazole-4-carbonyl)-1,5,6,7-tetrahydro-2H-pyrrolo[3,4-b]pyridin-2-one] | > 2000 nM | > 2000 nM | > 2000 nM |
| Cc1c2c(n(C)c(=O)c1Cl)CN(C(=O)c1csc(C(F)(F)F)n1)C2 [Compound I-26] | > 2000 nM | 100 to 500 nM | > 2000 nM |
| Cc1c2c(n(C)c(=O)c1Cl)CN(C(=O)c1ccc(C(F)(F)F)cc1)C2 [Compound I-41] | 500 to 2000 nM | 100 to 500 nM | 100 to 500 nM |
| Cc1cc(=O)n(C)c2c1C(C)N(C(=O)c1cnc(C3CC3)s1)C2 (single isomer, unassigned) [Compound I-96] | > 2000 nM | > 2000 nM | > 2000 nM |
| Cc1c2c(n(CC(F)(F)F)c(=O)c1Cl)CN(C(=O)c1cnc(CC3CC3)s1)C2 [Compound I-71] | > 2000 nM | 500 to 2000 nM | > 2000 nM |
| Cc1c2c(n(C)c(=O)c1Cl)CN(C(=O)c1ccc3nc(C4CC4)sc3c1)C2 [Compound I-52, 3-Chloro-6-(2-cyclopropylbenzo[d]thiazole-6-carbonyl)-1,4-dimethyl-1,5,6,7-tetrahydro-2H-pyrrolo[3,4-b]pyridin-2-one] | 100 to 500 nM | 100 to 500 nM | 500 to 2000 nM |
| COc1c2c(n(C)c(=O)c1Cl)CN(C(=O)c1cnn(C(F)(F)F)c1)C2C (single isomer, unassigned) [Compound I-74] | 500 to 2000 nM | < 100 nM | 500 to 2000 nM |
| Cc1cc(=O)n(C)c2c1[C@H](C)N(C(=O)c1ccc3nc(C4CC4)sc3c1)C2 [Compound I-102] | > 2000 nM | > 2000 nM | > 2000 nM |
| COc1c2c(n(C)c(=O)c1C)CN(C(=O)c1cnn(C(F)(F)F)c1)C2C (racemic) [Compound I-82, 4-Methoxy-1,3,5-trimethyl-6-(1-(trifluoromethyl)-1H-pyrazole-4-carbonyl)-1,5,6,7-tetrahydro-2H-pyrrolo[3,4-b]pyridin-2-one] | 500 to 2000 nM | 100 to 500 nM | 100 to 500 nM |
| Cc1c2c(n(C)c(=O)c1Cl)C(C)N(C(=O)c1cnn(C(F)(F)F)c1)C2 (single isomer, unassigned) [Compound I-108, 3-Chloro-1,4,7-trimethyl-6-(1-(trifluoromethyl)-1H-pyrazole-4-carbonyl)-1,5,6,7-tetrahydro-2H-pyrrolo[3,4-b]pyridin-2-one] | > 2000 nM | 500 to 2000 nM | > 2000 nM |
| Cc1c2c(n(C)c(=O)c1Cl)CN(C(=O)c1cc(C3CC3)on1)C2 [Compound I-6] | > 2000 nM | 100 to 500 nM | > 2000 nM |
| Cc1nc(C(=O)N2Cc3c(C)c(Cl)c(=O)n(C)c3C2)co1 [Compound I-12] | > 2000 nM | 100 to 500 nM | > 2000 nM |
| Cc1c2c(n(C)c(=O)c1Cl)CN(C(=O)c1cnc(CC3CC3(F)F)s1)C2 (stereo not drawn) [Compound I-66] | > 2000 nM | < 100 nM | 500 to 2000 nM |
| Cc1c2c(n(C)c(=O)c1F)CN(C(=O)c1cnn(C(F)(F)F)c1)C2 [Compound I-113, 3-Fluoro-1,4-dimethyl-6-(1-(trifluoromethyl)-1H-pyrazole-4-carbonyl)-1,5,6,7-tetrahydro-2H-pyrrolo[3,4-b]pyridin-2-one] | > 2000 nM | < 100 nM | 500 to 2000 nM |
| Cc1c2c(n(C)c(=O)c1Cl)CN(C(=O)c1cnc(C)n1C)C2 [Compound I-18] | > 2000 nM | 500 to 2000 nM | > 2000 nM |
| Cc1c(OC(F)F)c2c(n(C)c1=O)CN(C(=O)c1cnn(C(F)(F)F)c1)C2 [Compound I-89, 4-(Difluoromethoxy)-1,3-dimethyl-6-(1-(trifluoromethyl)-1H-pyrazole-4-carbonyl)-1,5,6,7-tetrahydro-2H-pyrrolo[3,4-b]pyridin-2-one] | > 2000 nM | 100 to 500 nM | 500 to 2000 nM |
| COc1cc(=O)n(C)c2c1C(C)N(C(=O)c1cnn(C(F)(F)F)c1)C2 (single isomer, unassigned) [Compound I-80] | > 2000 nM | 100 to 500 nM | > 2000 nM |
| Cc1c2c(n(C)c(=O)c1Cl)CN(C(=O)c1cnc(C(F)F)s1)C2 [Compound I-36] | 500 to 2000 nM | < 100 nM | 500 to 2000 nM |
| Cc1c2c(n(C)c(=O)c1C)CN(C(=O)c1cnn(C(F)(F)F)c1)C2 [Compound I-112] | > 2000 nM | < 100 nM | 100 to 500 nM |
| Cc1coc(C(=O)N2Cc3c(C)c(Cl)c(=O)n(C)c3C2)n1 [Compound I-22] | > 2000 nM | 100 to 500 nM | 500 to 2000 nM |
| Cc1cc(=O)n(C)c2c1C(C)N(C(=O)c1ccc3nc(C(F)(F)F)sc3c1)C2 (single isomer, unassigned) [Compound I-100] | > 2000 nM | > 2000 nM | > 2000 nM |
